The GI50 is the concentration at which growth is held to half of that of the control. Low readings indicate greater sensitivity of the cells, high ones lower sensitivity of the cells. For orientation: TGI means the concentration at which net growth stops. For orientation: MIC50 means the lowest concentration that inhibits either 50% of growth or 50% of the strains tested, depending on the study. For orientation: MIC means the least concentration at which growth counts as inhibited.

One test deals with HL-60 cells. Particulars: cited from earlier work.
The test system of another test is K-562 cells. To be noted: cited from earlier work.
The next test concerns procaspase 9. The test can be described thus: Western blot, procaspase 9. Particulars: MDA-MB-231 and HL60/DOX. Type of test: cell-based, human. The protocol:
Next, the samples were lysed on ice with a buffer containing 100 mM Tris–HCl at pH 8.0, 4% SDS, 20% glycerol, 1% Na3VO4, 200 mM dithiothreitol (DTT) (Sigma-Aldrich, St. Louis, MO, USA) and protease inhibitor (Roche, Basel, Switzerland). Then the cell lysate was boiled for 15 min and centrifuged at 13,000 rpm for 10 min at 4 °C. Before DTT addition, aliquot samples of 10 μL were taken from the lysates. Their protein concentrations were determined using a BCA protein assay kit (ThermoFisher Scientific, Waltham, MA, USA) after dilution 5× with H2O. Subsequently, the samples were subjected to denaturing SDS-PAGE electrophoresis and then transferred to PVDF membrane (Santa Cruz Biotechnology, USA). After this, the blots were fixed with blocking solution (5% w/v nonfat dried milk powder, dissolved in TBS) and incubated with specific primary antibodies: mouse procaspase-9 (sc-17784), mouse Bcl-2 (C-2, sc-7382) and mouse β-actin (sc-8432). The incubation was either overnight at 4 °C or for 150 min at room temperature. After washing, the membranes were incubated for 45 min with horseradish peroxidase conjugated secondary goat anti-mouse antibody (sc-2005) or mouse IgG kappa antibody (sc-516102) (Santa Cruz Biotechnology, Santa Cruz, CA, USA). […] This densitometry analysis of the blots was calculated by Quantity One software version 4.6.9 (Bio-Rad Laboratories, Hercules, CA, USA). […]
In general terms: In western blotting, separated proteins are transferred to a membrane and probed.

The subject of the next test is HL-60/DOX. The test can be described thus: MTT cytotoxicity test. Type of test: cell-based, human. Particulars: Homo sapiens, 72 h exposure. An excerpt: (§1) The group of human cell lines used in this study were represented by the tumor cell lines MDA-MB (breast carcinoma), EJ (urinary bladder carcinoma), K-562 (chronic myeloid leukemia), HL-60 (acute pre-myeloid leukemia), HL-60/DOX (multi-drug resistant HL-60 cell line, with over expression of MRP-1) and the non-tumorigenic cell lines HEK-293 (embryonic kidney cells) and EA.hy926 (vascular endothelial cells). EJ, HL60 and EA.hy926 were purchased from American Type Culture Collection (ATCC) (Manassas, Virginia). The other cell lines were purchased from the German Collection of Microorganisms and Cell Cultures (DSMZ GmbH, Braunschweig, Germany). HL-60/DOX cell lines were generated by periodically treating HL-60 cells with anthracyclins. The conditions in which the cell culture flasks were maintained were as follows: 37 °C in an incubator “BB 16-Function Line” Heraeus (Kendro, Hanau, Germany) with 5% CO2 humidified atmosphere. The growth medium was 90% RPMI-1640, supplemented with 10% FBS and 2 mM L-glutamine. MDA-MB-231, EJ, HEK-293 and EA.hy926 cells were maintained as adherent monolayer cultures while all the other (leukemic) cell lines were grown as suspension type cultures. Cells were maintained in log phase: the adherent cell lines were subjected to trypsinization 1–2 times a week and the leukemic cell lines were passaged 2–3 times a week by removing of part of the cellular suspension and substituting it with fresh medium.
(§2) The evaluation of cytotoxic activity was conducted by MTT test as described previously. The median inhibitory concentration (IC50) values which represent the half-maximal concentration values were calculated from sigmoidal concentration–response curves, using non-linear regression analysis (Curve fit, GraphPad Prizm 5.0 software, GraphPad Software Inc., San Diego, CA, USA). The selectivity index was calculated as the ratio of the IC50 of a non-cancerous line (HEK-293 or EA.hy926) and the average IC50 of all chemosensitive tested tumor cell lines (x). Therefore, SI=IC50HEK-293/IC50x . The resistance index (RI) was calculated as the ratio of IC50 of the multi-drug resistant HL-60/DOX cell line and the IC50 of its parent cell line: RI=IC50HL-60/DOX/IC50HL-60 .

For test [1], the system named is K-562. The test can be described thus: MTT cytotoxicity test. Particulars: Homo sapiens, K562, K-562, 72 h exposure. The class given is cell-based, human.
Text: as §1, §2
(In general: Formazan colour is commonly taken as a measure of viable cells.)

For test [2], the system named is HL-60. Put plainly: MTT cytotoxicity test. The class given is cell-based, human. Particulars: Homo sapiens, HL-60, 72 h exposure.
Text: as §1, §2

Another test relates to EA.hy926. Put plainly: MTT cytotoxicity test. To be noted: Homo sapiens, EA.hy 926, EA.hy926, 72 h exposure. Type of test: cell-based, human.
Text: as §1, §2

A further test has as its system EJ. The test can be described thus: MTT cytotoxicity test. Type of test: cell-based, human. To be noted: Homo sapiens, 72 h exposure.
Text: as §1, §2

For test [3], the system named is MDA-MB-231. The test can be described thus: MTT cytotoxicity test. Particulars: Homo sapiens, MDA-MB-231, 72 h exposure. The class given is cell-based, human.
Text: as §1, §2

Another test relates to HEK-293. Put plainly: MTT cytotoxicity test. The class given is cell-based, human. To be noted: Homo sapiens, HEK293, HEK-293, 72 h exposure.
Text: as §1, §2

Test [4] relates to K-562. Put plainly: Antiproliferative test (NCI methodology). The class given is cell-based, human.
Text: as §1
(§3) The test was performed according the methodology of National Cancer Institute (NCI), USA [116]. Briefly, cells were seeded into 96-well plates in the same way as for an MTT test and after 24 h, the absorption of one plate of each cell line was measured as in the MTT assay described above, to represent a measurement of the cell population at the time of drug-addition (Tz). The rest of the plates were treated with the tested compounds and the experiment for them continued as the MTT-method. Using the absorbance measurements [(Tz, untreated control growth (C) and test growth in the present of the compounds (Ti)], the percentage growth is calculated at each of the tested concentrations of the compounds. Percentage growth inhibition (GI) is calculated as GI%=Ti−Tz/C−Tz×100 for concentrations for which Ti ≥ Tz. For concentrations in which Ti < Tz it is calculated as GI%=Ti−Tz/Tz×100 . Two dose parameters are calculated for each experimental agent. Growth inhibition of 50% (GI50) is calculated from Ti−Tz/C−Tz×100=50 . This is the drug concentration resulting in a 50% reduction in the net protein increase (as measured by MTT-test) in control cells during the drug incubation. The drug concentration resulting in total growth inhibition (TGI) is calculated from Ti = Tz.

The test system of test [5] is HL-60. Put plainly: Antiproliferative test (NCI methodology). The class given is cell-based, human.
Text: as §1, §3

Test [6] concerns MDA-MB-231. The test can be described thus: Antiproliferative test (NCI methodology). Type of test: cell-based, human.
Text: as §1, §3

The next test relates to MRSA. To be noted: growth of MRSA; cited from earlier work.
Test [7] relates to human tumor (MDA-MB-231, EJ, K-562, HL-60 and HL-60/DOX) cell lines. The test can be described thus: MTT cytotoxicity test, tumor cell line panel. Type of test: cell-based. Particulars: Homo sapiens; average IC50 of all chemo-sensitive tested tumor cell lines; read-out: x.
Text: as §1, §2

For test [8], the system named is Staphylococcus aureus (ATCC 29213). The test can be described thus: MIC by broth microdilution. Particulars: ATCC29213, Staphylococcus aureus, read-out: MIC. Type of test: cell-based. The text has this:
(§4) The Gram-positive bacterial strains that were examined for susceptibility were: Staphylococcus aureus (ATCC 29213, American Type Cell Culture Collection, Manassas, VA, USA), Staphylococcus aureus—MRSA (NBIMCC 8327-resistant to methicillin and oxacillin, National Bulgarian Collection for Industrial Microorganisms and Cell Cultures, Sofia, Bulgaria), Enterococcus faecalis (ATCC 29212) and Streptococcus pyogenes (SAIMC 10535, Collection of the Stephan Angeloff Institute of Microbiology, Sofia, Bulgaria). The only Gram-negative bacterial strain used was Escherichia coli (ATCC 35218). Bacteria were maintained in Trypticase Soy Broth (TSB, Himedia, India) at 37 °C, aerobic conditions. For the experiments brain heart infusion (BHI) broth (#M210 HiMedia, Mumbai, India) was used for E. faecalis and S. pyogenes and Mueller Hinton broth (MHB, #M0405B) from Thermo Scientific-Oxoid (Basingstoke, UK)—for all other strains.
(§5) BMD was performed according to the following protocol of ISO 20776/1-2006 [117]. A bacterial suspension with density of 10^8 CFU/mL (0.5 McFarland standard, OD600) was prepared from an overnight grown liquid bacterial culture homogenized over vortex and brought to a working bacterial suspension (WBS) with concentration of 5×10^5 CFU/mL by being diluted 200× with MHB or BHI broth and homogenized over vortex again. Two-fold serial dilutions of compounds 3–5 was prepared in 96-well round bottom plates to a volume of 50 μL and final range of concentrations 100–0.2 μg/mL. Stock solutions were dissolved in ethanol and MHB was used as diluent and as test for absence of contamination. Three wells were left as blank samples and 6 wells were left for control samples. An equivalent volume (50 μL) of the WBS was inoculated to each well in the aforementioned plates achieve final bacterial density of […] with the exception of the blank wells. After 18–24 h incubation under aerobic standardized conditions at 37 °C the plates were examined. […] Antibiotics dissolved in sterile distilled water were used as referent positive controls. They were penicillin G (PEN, #B0500000, Merck KGaA, Darmstadt, Germany) for E. faecalis and S. pyogenes, gentamicin (GEN, #15750-037, 50 mg/mL, Gibco, Paisley, UK) for all bacteria except S. pyogenes and ciprofloxacin (CIP, Ciproflav:10 mg/mL, Polfa S.A. Warsaw Pharmaceutical Works, Starogard Gdanski, Poland) for E. faecalis. The range of concentrations were 0.004–2 mg/L for PEN, 0.008–4 mg/L for GEN and 0.005–2 mg/L for CIP. The requirements of EUCAST (European Committee on Antimicrobial Susceptibility Testing) for their MICs were followed for discussing the results. In the end the plates which contained active agents were subjected to assessment of the dehydrogenase activity of the bacteria.
(In broth dilution the organism is exposed to a series of concentrations in liquid medium.)

The test system of test [9] is Staphylococcus aureus—MRSA (NBIMCC 8327). Put plainly: MIC by broth microdilution. Type of test: cell-based. To be noted: read-out: MIC.
Text: as §4, §5

Test [10] deals with Enterococcus faecalis (ATCC 29212). The test can be described thus: MIC by broth microdilution. Particulars: ATCC29212, read-out: MIC. Type of test: cell-based.
Text: as §4, §5

Another test has as its system MDA-MB-231 cells. To be noted: cited from earlier work.
Test [11] concerns Streptococcus pyogenes (SAIMC 10535). The test can be described thus: MIC by broth microdilution. Type of test: cell-based. To be noted: read-out: MIC.
Text: as §4, §5

Converted amounts (≈) assume the structure as drawn. “And” between values parts separate entries of the source, which are not always exact repeats. Identical values can stand only once. Like-named read-outs stand apart in the source and are kept apart here.

For hyperisampsin J, the IC50 in the test on HL-60 cells is 0.56 µM.
Turning to hyperbeanol D, the IC50 in the test on K-562 cells (K-562 cells) was 21 µM.
On to Hyperisampsin M, for which, in the test on HL-60 cells, the IC50 was 1.4 µM.
hyperbeanol B: the IC50 with K-562 cells (K-562 cells) was 17 µM.
Take hyperforin: the IC50 in the test on K-562 cells (K-562) was 3.2 µM.
On to `CC(C)=CCC/C(C)=C/COc1cc(O)cc(O)c1C(=O)C(C)C` [Compound 1, (E)-1-[2-{(3,7-dimethylocta-2,6-dien-1-yl)oxy}-4,6-dihydroxyphenyl]-2-methylpropan-1-one], for which the “degradation of the precursor caspase 9 (in words)” value in the test with procaspase 9 is “not any observed decrease”. The IC50 with HL-60/DOX turned out to be 5.59 ± 0.4 µM; in the test with K-562 [1], 9.05 ± 0.8 µM; in the test on HL-60 [2], 16.6 ± 3.3 µM; in the test with EA.hy926, 6.73 ± 0.9 µM; in the test with EJ, 7.01 ± 1.3 µM; with MDA-MB-231 [3] it was 24.9 ± 3.2 µM. In addition, the IC50 was 14.7 ± 2.2 µM in the test on HEK-293 and 14.5 µM in test [7]. The GI50 in the test on K-562 [4] (Homo sapiens, K562, K-562, MTT readout) stood at 5.2 µM; in the test on HL-60 [5] (Homo sapiens, HL-60, MTT readout), 3.79 µM; in the test with MDA-MB-231 [6] (Homo sapiens, MDA-MB-231, MTT readout), 10.4 µM. Also, the TGI in the test with K-562 [4] (K-562, total growth inhibition) came to 11.90 µM; with HL-60 [5] (HL-60, total growth inhibition), 9.39 µM; in the test with MDA-MB-231 [6] (MDA-MB-231, total growth inhibition) it was 18.56 µM. Moreover, in the test on MRSA, the MIC50 is 1.14 µg/mL (≈ 3.43 µM).
As to `CNC(C)C1CCC(N)C(OC2C(N)CC(N)C(OC3OCC(C)(O)C(NC)C3O)C2O)O1` (stereo not drawn) [Gentamicin, gentamicin, reference compound], the minimum inhibitory concentration (MIC) is 0.25 µg/mL and 0.52 µM in test [8]; 0.25 µg/mL and 0.52 µM in test [9]; 8 µg/mL and 16.8 µM in test [10].
For the molecule hyperatomarin, in the test on MDA-MB-231 cells, the IC50 was 0.86 µM.
On to `CC1(C)S[C@@H]2[C@H](NC(=O)Cc3ccccc3)C(=O)N2[C@H]1C(=O)O` [Penicillin, penicillin G, reference compound], for which the MIC is 0.08 µg/mL and 0.24 µM in test [11]; 2.5 µg/mL and 7.48 µM in test [10].
For `COc1cc([C@@H]2c3cc4c(cc3[C@@H](O[C@@H]3O[C@@H]5CO[C@@H](C)O[C@H]5[C@H](O)[C@H]3O)[C@H]3COC(=O)[C@H]23)OCO4)cc(OC)c1O` [Etoposide, reference compound], the IC50 in the test on HL-60/DOX came out at 42.3 ± 2.7 µM; with K-562 [1] it was 2.34 ± 0.7 µM; in the test with HL-60 [2] it was 1.27 ± 0.4 µM; in the test with EJ it was 5.4 ± 1.3 µM; in the test on MDA-MB-231 [3] it was 8.42 ± 1.3 µM.
Consider hyphenrone R, for which the IC50 in the test with HL-60 cells was 3.3 µM.

Values taken from article PMC10097024, “Cytotoxic and Antibacterial Prenylated Acylphloroglucinols from Hypericum olympicum L” (Plants, 2023).
